Experimental data from patent US20240368183A1, “Macrocyclic Compounds Having ENT1 Inhibiting Activity” (iTeos Belgium SA, priority 2021, published 2024).
Like-named read-outs stand apart in the source and are kept apart here.

Legend:
[1] = test system: stimulated primary human T cells; experiment: T cell proliferation assay (rescue of proliferation in the presence of ATP); assay type: cell-based
Method: The aim of this study was to determine the potency of equilibrative nucleoside transporter 1 (ENT1) inhibitors to rescue proliferation by stimulated primary human T cells incubated in the presence of 100 uM Adenosine triphosphate (ATP), in baseline conditions (condition A) or in the presence of various proteins known to bind small molecules (condition B)
Condition B: X-VIVO15, 2% Human Serum Albumine (HSA) and 0.1% α-1-Acid Glycoprotein (AAG)
Cryopreserved purified human CD3+ T cells were thawed and washed twice with RPMI1640 medium, UltraGlutamine containing 10% hiFBS.
Cells were suspended in PBS containing 10% hiFBS. Cells were stained with CFSE by adding 2 μM solution in PBS, to get a final 1 μM CFSE solution. Cells were incubated while rotating for 5 minutes. Reaction was stopped by adding PBS with 10% FBS and cells were centrifuged for 5 minutes at 1500 rpm.
Cells were resuspended at 1.6×10^6 cells/mL, either in X-VIVO15 medium or in 4% Human Serum Albumin and 0.2% α-1-Acid Glycoprotein. 50 μL of cell suspension (8×10^4 T cells) was added to wells of sterile round-bottom 96-well plates. Cells were activated by adding 50 μL of anti-CD3 anti-CD28 coated microbeads, suspended either in XVIVO-15 medium or in 4% HSA and 0.2% α-1-Acid Glycoprotein, at a ratio of one microbead per two cells.
Serial dilutions of the ENT1 inhibitors were prepared in X-VIVO15 from 10 mM stock solutions in DMSO, and 50 μL was added to the wells.
ATP powder was diluted in X-VIVO15, and 50 μL of this compound was added to the wells to reach a final assay concentration of 100 μM. Final volume of 200 μL.
The experiments were also performed in 384 well plates—all volumes reduced by a factor of 4 (12.5 μL) with a final volume of 50 μL.
Experiments were performed in duplicate. The cells were placed in a 37° C. humidified tissue culture incubator with 5% CO2 for 72 hours for 96 well plates, 96 hours for 384 well plates After 72 or 96 hours, proliferation was measured determined by CFSE dilution via flow cytometry.

[2] = target: T1, human ENT1 (Homo sapiens, UniProt Q99808); experiment: ENT1 binding assay (competition with Sahenta-DY647); conditions: JAR cells expressing ENT1; competition with Sahenta-DY647 (100 nM); 4° C.
T1 construct: JAR cells expressing ENT1 were bought from ATCC® (HTB-144TM); host or cells: JAR cells (human choriocarcinoma line, own knowledge)
T1 sequence (Q99808 1-456): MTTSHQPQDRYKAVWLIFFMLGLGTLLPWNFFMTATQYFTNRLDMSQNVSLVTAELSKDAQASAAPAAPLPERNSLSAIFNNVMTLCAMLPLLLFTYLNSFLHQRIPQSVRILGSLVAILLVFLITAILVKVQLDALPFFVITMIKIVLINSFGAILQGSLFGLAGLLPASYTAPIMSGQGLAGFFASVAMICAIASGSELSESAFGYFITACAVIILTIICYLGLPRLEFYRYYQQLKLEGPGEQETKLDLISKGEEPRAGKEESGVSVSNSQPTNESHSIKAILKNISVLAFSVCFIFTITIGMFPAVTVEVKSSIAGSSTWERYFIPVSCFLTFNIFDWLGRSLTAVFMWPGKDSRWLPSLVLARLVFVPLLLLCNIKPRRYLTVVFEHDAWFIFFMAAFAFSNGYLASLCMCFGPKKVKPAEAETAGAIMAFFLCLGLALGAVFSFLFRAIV
Method: The present assay aims at showing that the compounds of the present disclosure can bind to human ENT1. The principle of the assay is a competition between the compounds of this present disclosure and Sahenta-DY647, an ENT1 inhibitor that emits fluorescence (Ex=630 nm, Em=670 nm). By measuring the fluorescence at the end of the assay we could assess the binding potency of the compounds of the present disclosure.
JAR cells expressing ENT1 were bought from ATCC® (HTB-144TM). Cells were cultured in RPMI 1640 medium (LONZA®, #BE12-702F/U1) supplemented with 10% FBS (GIBCO®, #10270-106), 10 mM Hepes (LONZA®, #BE17-737E), 1 mM Sodium Pyruvate (LONZA®, #BE13-115E) and 2% Penicillin/Streptomycin (LONZA®, #DE17-603E) at 37° C. and 5% CO2. The assay was conducted on the following buffer: HBSS (LONZA®, #LO-527F) supplemented with 10 mM Hepes (LONZA®, #BE17-737E) and 0.1% BSA (Miltenyi®, #130-091-376) on the day of the assay.
JAR cells were resuspended in the described buffer. Compounds of the present disclosure and Sahenta-DY647 were diluted 200× in the described buffer.
A total of 50 000 cells were pre-incubated for 30 min at 4° C. with the compounds of the present disclosure before adding the corresponded IC90 of Sahenta-DY647 (100 nM) and incubate once more for 30 min at 4° C. The total volume of the reaction was 100 μL (50 μL of cells, 25 μL of the compounds of the present disclosure and 25 μL of Sahenta-DY647) in a 96 well plate, U-bottom (Greiner®, #650-180). The plates were washed 2× by centrifugation (4 min, 400 rcf at 4° C.) in the same buffer. Cells were re-suspended in 70 μL of the buffer and 50 μL was transferred to a Black 384 Optiplate (PerkinElmer®, #6007279). Fluorescence (Ex=630 nm, Em=670 nm) was acquired on a Spectramax i3x (Molecular Devices®).

[3] = Condition B: X-VIVO15, 2% Human Serum Albumine (HSA) and 0.1% α-1-Acid Glycoprotein (AAG), 100 μM ATP, read-out: (2) T Cell proliferation (Condition B) IC50
[4] = Homo sapiens, Condition A: X-VIVO15, 100 μM ATP, read-out: T Cell proliferation (Condition A) IC50

Compound	IC50 [2] [nM]	IC50 [1, 3] [nM]	IC50 [1, 4] [nM]
COc1cc(C(=O)OC2CCCOc3cc(cc(OC)c3OC)COCCCN3CCCN(CC2)CC3)cc(OC)c1OC (racemic) [Compound 3]	< 1	< 1	< 0.1
COc1cc(C(=O)O[C@@H]2CCCOc3cc(cc(OC)c3OC)COCCCN3CCCN(CC2)CC3)cc(OC)c1OC (single isomer, unassigned) [Compound 4]	1 to 20	< 1	< 0.1
COc1cc(C(=O)O[C@H]2CCCOc3cc(cc(OC)c3OC)COCCCN3CCCN(CC2)CC3)cc(OC)c1OC (single isomer, unassigned) [Compound 5]	20 to 500		
COc1cc2cc(c1OC)OCCCC(O/N=C/c1ccccc1)CCN1CCCN(CCCOC2)CC1 (stereo not drawn) [Compound 1]	20 to 500		
COc1cc2cc(c1OC)OCCCC(OC(=O)c1ccccc1)CCN1CCCN(CCCOC2)CC1 (stereo not drawn) [Compound 2]	1 to 20	> 500	1 to 20
COc1cc2cc(c1OC)OCCCC(OC(=O)CCC(=O)N1CCOCC1)CCN1CCCN(CCCOC2)CC1 (stereo not drawn) [Compound 6]	1 to 20	> 500	< 1
COc1cc2cc(c1OC)OCCCC(OC(=O)c1cnnn1C)CCN1CCCN(CCCOC2=O)CC1 (stereo not drawn) [Compound 7]	1 to 20		
COc1cc2cc(c1OC)OCCCC(OC(=O)c1cn(C)nn1)CCN1CCCN(CCCOC2=O)CC1 (stereo not drawn) [Compound 8]	1 to 20		
COc1cc2cc(c1OC)OCCCC(OC(=O)c1cnn(C)c1)CCN1CCCN(CCCOC2=O)CC1 (stereo not drawn) [Compound 9]	1 to 20	1 to 20	< 0.1
COc1cc2cc(c1OC)OCCCC(OC(=O)c1ccnn1C)CCN1CCCN(CCCOC2=O)CC1 (stereo not drawn) [Compound 10]	1 to 20	20 to 500	< 0.1
COc1cc2cc(c1OC)OCCCC(OC(=O)c1ccn(C)n1)CCN1CCCN(CCCOC2=O)CC1 (stereo not drawn) [Compound 11]	1 to 20	> 500	< 1
COc1cc2cc(c1OC)OCCCC(OC(=O)c1cc(C)nn1C)CCN1CCCN(CCCOC2=O)CC1 (stereo not drawn) [Compound 12]	1 to 20	1 to 20	< 1
COc1ccc(C(=O)OC2CCCOc3cc(cc(OC)c3OC)C(=O)OCCCN3CCCN(CC2)CC3)cc1 (stereo not drawn) [Compound 13]	1 to 20		
COc1cccc(C(=O)OC2CCCOc3cc(cc(OC)c3OC)C(=O)OCCCN3CCCN(CC2)CC3)c1 (stereo not drawn) [Compound 14]	1 to 20		
COc1cc(OC)cc(C(=O)OC2CCCOc3cc(cc(OC)c3OC)C(=O)OCCCN3CCCN(CC2)CC3)c1 (stereo not drawn) [Compound 15]	1 to 20	1 to 20	< 1
COc1ccc(C(=O)OC2CCCOc3cc(cc(OC)c3OC)C(=O)OCCCN3CCCN(CC2)CC3)cc1OC (stereo not drawn) [Compound 16]	1 to 20	1 to 20	< 0.1
[2H]C([2H])([2H])Oc1cc(C(=O)O[C@@H]2CCCOc3cc(cc(OC)c3OC)C(=O)NCCCN3CCCN(CC2)CC3)cc(OC([2H])([2H])[2H])c1OC([2H])([2H])[2H] [Compound 17]	1 to 20	1 to 20	< 0.1
COc1cc(C(=O)OC2CCCOc3cc(cc(OC)c3OC)C(=O)NCCN3CCCN(CC2)CC3)cc(OC)c1OC (stereo not drawn) [Compound 19]	1 to 20	20 to 500	< 1
COc1cc2cc(c1OC)OCCCC(OC(=O)CCC(=O)N1CCOCC1)CCN1CCCN(CCCNC2=O)CC1 (stereo not drawn) [Compound 20]	20 to 500	> 500	1 to 20
COc1cc(C(=O)OC2CCCOc3cc(cc(OC)c3OC)C(=O)NCCC(=O)N3CCCN(CC2)CC3)cc(OC)c1OC (stereo not drawn) [Compound 21]	1 to 20	1 to 20	< 0.1
COc1cc(C(=O)OCCCN2CCCN(CCCOC(=O)c3cc(OC)c(OC)c(OC)c3)CC2)cc(OC)c1OC [Dilazep, dilazep, reference compound]		20 to 500	1 to 20

Further lines, with some results ahead:

IC50 [2] [nM]	Compound	IC50 [1, 3] [nM]	IC50 [1, 4] [nM]
500 to 1000	COc1cc(C(=O)O[C@H]2CCOc3cc(cc(OC)c3OC)C(=O)NCCCN3CCCN(CC2)CC3)cc(OC)c1OC (stereo in doubt) [Compound 38]		
20 to 500	COc1cc2cc(c1OC)OCCCC(Oc1ncccn1)CCN1CCCN(CCCOC2=O)CC1 (stereo not drawn) [Compound 22]		
1 to 20	COc1cc2cc(c1OC)OCCCC(Oc1nccc3ccccc13)CCN1CCCN(CCCOC2=O)CC1 (stereo not drawn) [Compound 23]	20 to 500	1 to 20
1 to 20	COc1cc2cc(c1OC)OCCCC(Oc1nncc3ccccc13)CCN1CCCN(CCCOC2=O)CC1 (stereo not drawn) [Compound 24]	20 to 500	< 0.1
500 to 1000	COc1cc2cc(c1OC)OCCCC(Oc1ccn(C)n1)CCN1CCCN(CCCOC2=O)CC1 (stereo not drawn) [Compound 25]		
1 to 20	COc1cc2cc(c1OC)OCCCC(OC(=O)N1CCOCC1)CCN1CCCN(CCCOC2=O)CC1 (stereo not drawn) [Compound 26]		
1 to 20	COc1cc2cc(c1OC)OCCCC(OC(=O)N1CCCCC1)CCN1CCCN(CCCOC2=O)CC1 (stereo not drawn) [Compound 27]		
1 to 20	COc1cc2cc(c1OC)OCCCC(n1ncc(-c3ccccc3)n1)CCN1CCCN(CCCOC2=O)CC1 (stereo not drawn) [Compound 28]	20 to 500	< 1
20 to 500	COc1cc(C(=O)OC2CCCOc3cc(cc(OC)c3OC)C(=O)NCCC(=O)N3CCN(CC2)CC3)cc(OC)c1OC (stereo not drawn) [Compound 31]		
500 to 1000	COc1cc2cc(c1OC)OCCCCCCN1CCCN(CCCOC2=O)CC1 [Compound 32]		
500 to 1000	Cn1nnc2cc(C(=O)OC3CCCOc4cc(cc(Cl)c4Cl)C(=O)NCCCN4CCCN(CC3)CC4)ccc21 (stereo not drawn) [Compound 34]		
500 to 1000	COc1cc2cc(c1OC)OCCCC(OCc1ccccc1)CCN1CCCN(CCCOC2=O)CC1 (stereo not drawn) [Compound 35]		
20 to 500	COc1cc(C(=O)OC2CCCOc3cccc(c3)-c3cn(nn3)CCCN3CCCN(CC2)CC3)cc(OC)c1OC (stereo not drawn) [Compound 36]		
20 to 500	COc1cc(C(=O)O[C@@H]2CCOc3cc(cc(OC)c3OC)C(=O)NCCCN3CCCN(CC2)CC3)cc(OC)c1OC [Compound 39]		
1 to 20	COc1cc(C(=O)OC2CCCOc3cc(cc(OC)c3OC)CCCCCN3CCCN(CC2)CC3)cc(OC)c1OC (stereo not drawn) [Compound 45]		
20 to 500	COc1cc(C(=O)OC2CCCOc3cc(cc(OC)c3OC)C#CCCS(=O)(=O)N3CCCN(CC2)CC3)cc(OC)c1OC (stereo not drawn) [Compound 46]		
